Test results taken from PubChem BioAssay AID588415 (Sanford-Burnham Center for Chemical Genomics, 2011).
Calls of active or inactive are those of the source.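 The calls were made as follows: active = IC50 at or below 20 µM; inactive = the rest.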

Each compound was assayed against glucose-6-phosphate dehydrogenase-6-phosphogluconolactonase (PfGluPho), Plasmodium falciparum 3D7 (assay: inhibition of P. falciparum G6PD activity – biochemical, fluorescence intensity, SAR follow-up (AID 588415)). Settings: recombinant PfG6PD, resazurin-diaphorase NADPH fluorescence.
`CCN(CCNC(=O)c1ccc2c(c1)NC(=O)c1ccccc1S2)c1ccccc1` was tested, and the IC50 was > 80 µM (inactive).
`CCN1CCCC1CNC(=O)c1ccc2c(c1)NC(=O)/C(=C/c1ccccc1F)S2` (centres undefined) gave an IC50 of 1.73 µM.
`CCN1CCCC1CNC(=O)c1ccc2c(c1)N(Cc1ccc(C(F)(F)F)cc1)C(=O)c1ccccc1S2` (centres undefined) was tested, and the IC50 was > 80 µM (inactive).
For `CCN(CCNC(=O)c1ccc2c(c1)N(Cc1cc(C)ccc1C)C(=O)c1ccccc1S2)c1ccccc1`, the IC50 was > 80 µM (inactive).
For `O=C1Nc2cc(C(=O)NCCN3CCCC3)ccc2S/C1=C/c1ccccc1Cl`, the IC50 was 11.1 µM.
`CCOc1ccc(C(=O)Nc2nnc(S(=O)(=O)N3CCCCCC3)s2)cc1` was tested, and the IC50 was > 80 µM (inactive).
Compound `Cc1cccc(C(=O)Nc2nnc(S(=O)(=O)N3CCC(C)CC3)s2)c1` has an IC50 of 13 µM.
In the case of `Cc1ccccc1C(=O)Nc1nnc(S(=O)(=O)N2CCCc3ccccc32)s1`, the IC50 is reported as > 80 µM (inactive).
`CCCN(CCC)CCNC(=O)c1ccc2c(c1)NC(=O)/C(=C/c1ccccc1)S2` was tested, and the IC50 was > 80 µM (inactive).
For `O=C(Nc1nnc(S(=O)(=O)N2CCCCCC2)s1)c1cccc(F)c1`, the IC50 was > 80 µM (inactive).
With `O=C(Nc1nnc(S(=O)(=O)N2CCCCCC2)s1)c1cccc(Cl)c1` the IC50 was 5.6 µM.
`Cc1cccc(C(=O)Nc2nnc(S(=O)(=O)N3c4ccccc4CC3C)s2)c1` (centres undefined) was tested, and the IC50 was > 80 µM (inactive).
With `CN(CCNC(=O)c1ccc2c(c1)NC(=O)c1ccccc1S2)C1CCCCC1` the IC50 was “inactive”.
`CCN(CC)CCNC(=O)c1ccc2c(c1)NC(=O)/C(=C/c1ccccc1)S2` was tested, and the IC50 was 8.81 µM.
For `COc1cccc(/C=C2/Sc3ccc(C(=O)NCCN4CCCC4)cc3NC2=O)c1`, the IC50 was “inactive”.
In the case of `O=C(Nc1nnc(S(=O)(=O)N2CCCCCC2)s1)c1ccco1`, the IC50 is reported as > 80 µM (inactive).
For `O=C(Nc1nnc(S(=O)(=O)N2CCCCCC2)s1)c1ccc(F)cc1`, the IC50 was “inactive”.
`CC1Cc2ccccc2N1S(=O)(=O)c1nnc(NC(=O)c2cccc(Br)c2)s1` (centres undefined) was tested, and the IC50 was > 80 µM (inactive).
In the case of `Cc1ccc(C(=O)Nc2nnc(S(=O)(=O)N3CCCCCC3)s2)cc1`, the IC50 is reported as > 80 µM (inactive).
For `O=C(Nc1nnc(S(=O)(=O)N2CCCCCC2)s1)c1ccccc1F`, the IC50 was > 80 µM (inactive).
In the case of `O=C1Nc2cc(C(=O)NCCN3CCCCCC3)ccc2S/C1=C/c1ccccc1F`, the IC50 is reported as “inactive”.
Work on `CCN1CCCC1CNC(=O)c1ccc2c(c1)NC(=O)/C(=C\c1ccccc1Cl)S2` (centres undefined) yielded an IC50 of 2.56 µM.
`O=C(Nc1nnc(S(=O)(=O)N2CCCCC2)s1)c1cccc(F)c1` was tested, and the IC50 was > 80 µM (inactive).
For `COc1ccc(/C=C2/Sc3ccc(C(=O)NCCN4CCCC4)cc3NC2=O)cc1`, the IC50 was “inactive”.
In the case of `CCC(C)N(CCNC(=O)c1ccc2c(c1)NC(=O)c1ccccc1S2)C1CCCCC1` (centres undefined), the IC50 is reported as 6.36 µM.
With `CCCN(CCC)CCNC(=O)c1ccc2c(c1)NC(=O)/C(=C\c1ccc(C)cc1)S2` the IC50 was > 80 µM (inactive).
`CC1Cc2ccccc2N1S(=O)(=O)c1nnc(NC(=O)c2cccc(F)c2)s1` (centres undefined) was tested, and the IC50 was > 80 µM (inactive).
Compound `Cc1cccc(C(=O)Nc2nnc(S(=O)(=O)N3CCCCCC3)s2)c1` has an IC50 of 8.71 µM.
`CCN(CC)CCNC(=O)c1ccc2c(c1)NC(=O)c1ccccc1S2` was tested, and the IC50 was “inactive”.
In the case of `Cc1cccc(C(=O)Nc2nnc(S(=O)(=O)N3CCOCC3)s2)c1`, the IC50 is reported as 4.17 µM.
Work on `CCN(CC)CCNC(=O)c1ccc2c(c1)NC(=O)/C(=C\c1ccccc1Cl)S2` yielded an IC50 of 16.2 µM.
For `Cc1ccc(CN2C(=O)c3ccccc3Sc3ccc(C(=O)NCCN(C)C)cc32)cc1`, the IC50 was “inactive”.
In the case of `Cc1ccc(C(=O)Nc2nnc(S(=O)(=O)N3CCCc4ccccc43)s2)cc1`, the IC50 is reported as > 80 µM (inactive).
With `COc1ccc(/C=C2/Sc3ccc(C(=O)NCCN(C)C)cc3NC2=O)cc1` the IC50 was > 80 µM (inactive).
For `CCN(CCNC(=O)c1ccc2c(c1)N(CC)C(=O)c1ccccc1S2)c1ccccc1`, the IC50 was > 80 µM (inactive).
In the case of `COc1ccc(C(=O)Nc2nnc(S(=O)(=O)N3CCCCCC3)s2)cc1`, the IC50 is reported as “inactive”.
For `CCN(CC)CCNC(=O)c1ccc2c(c1)N(Cc1ccc(C)cc1)C(=O)c1ccccc1S2`, the IC50 was “inactive”.
In the case of `CCN(CC)CCNC(=O)c1ccc2c(c1)N(Cc1ccccc1Cl)C(=O)c1ccccc1S2`, the IC50 is reported as > 80 µM (inactive).
`CCN1CCCC1CNC(=O)c1ccc2c(c1)N(Cc1ccccc1Cl)C(=O)c1ccccc1S2` (centres undefined) was tested, and the IC50 was > 80 µM (inactive).
`Cc1cccc(C(=O)Nc2nnc(S(=O)(=O)N3CCCc4ccccc43)s2)c1` was tested, and the IC50 was > 80 µM (inactive).
In the case of `CCN(CC)CCNC(=O)c1ccc2c(c1)NC(=O)/C(=C\c1ccc(OC)cc1)S2`, the IC50 is reported as “inactive”.
With `Cc1ccccc1C(=O)Nc1nnc(S(=O)(=O)N2CCCCCC2)s1` the IC50 was > 80 µM (inactive).
`COc1ccc(/C=C2/Sc3ccc(C(=O)NCCN4CCCCCC4)cc3NC2=O)cc1` was tested, and the IC50 was > 80 µM (inactive).
With `COc1cccc(/C=C2/Sc3ccc(C(=O)NCCN4CCCCCC4)cc3NC2=O)c1` the IC50 was > 80 µM (inactive).
Compound `COc1cccc(C(=O)Nc2nnc(S(=O)(=O)N3CCCCCC3)s2)c1` has an IC50 of 4.89 µM.
For `O=C(Nc1nnc(S(=O)(=O)N2CCOCC2)s1)c1cccc(F)c1`, the IC50 was “inactive”.
`COc1ccccc1C(=O)Nc1nnc(S(=O)(=O)N2CCCCCC2)s1` was tested, and the IC50 was > 80 µM (inactive).
With `CCN(CC)CCNC(=O)c1ccc2c(c1)NC(=O)/C(=C\c1ccccc1F)S2` the IC50 was 7.36 µM.
With `O=C(Nc1nnc(S(=O)(=O)N2CCCc3ccccc32)s1)c1cccc(F)c1` the IC50 was > 80 µM (inactive).
For `Cc1cccc(N2CCN(CCNC(=O)c3ccc4c(c3)NC(=O)c3ccccc3S4)CC2)c1C`, the IC50 was > 80 µM (inactive).
Compound `CCN1CCCC1CNC(=O)c1ccc2c(c1)NC(=O)c1ccccc1S2` (centres undefined) has an IC50 of 12.2 µM.
With `O=C(Nc1nnc(S(=O)(=O)N2CCCCCC2)s1)c1ccccc1` the IC50 was “inactive”.
For `O=C1Nc2cc(C(=O)NCCN3CCCCCC3)ccc2S/C1=C/c1ccccc1Cl`, the IC50 was “inactive”.
With `CCN1CCCC1CNC(=O)c1ccc2c(c1)NC(=O)/C(=C\c1ccccc1F)S2` (centres undefined) the IC50 was 1.75 µM.
With `CCN1CCCC1CNC(=O)c1ccc2c(c1)N(Cc1ccccc1F)C(=O)c1ccccc1S2` (centres undefined) the IC50 was > 80 µM (inactive).
`CCN(CC)CCNC(=O)c1ccc2c(c1)NC(=O)/C(=C\c1ccc(OC)c(OC)c1)S2` was tested, and the IC50 was “inactive”.
Work on `O=C(Nc1nnc(S(=O)(=O)N2CCCCCC2)s1)c1cccc(Br)c1` yielded an IC50 of 7.35 µM.
Compound `Cc1cccc(/C=C2/Sc3ccc(C(=O)NCCN4CCCC4)cc3NC2=O)c1` has an IC50 of 11.8 µM.
With `Cc1ccc(C(=O)Nc2nnc(S(=O)(=O)N3c4ccccc4CC3C)s2)cc1` (centres undefined) the IC50 was > 80 µM (inactive).
For `O=C(Nc1nnc(S(=O)(=O)N2CCCCCC2)s1)C1CCCCC1`, the IC50 was > 80 µM (inactive).
`COc1ccc(C(=O)Nc2nnc(S(=O)(=O)N3CCCCCC3)s2)cc1OC` was tested, and the IC50 was > 80 µM (inactive).
For `CCN1CCCC1CNC(=O)c1ccc2c(c1)N(Cc1cccc(F)c1)C(=O)c1ccccc1S2` (centres undefined), the IC50 was > 80 µM (inactive).
`CN(C)CCNC(=O)c1ccc2c(c1)NC(=O)/C(=C\c1cccc(Cl)c1)S2` was tested, and the IC50 was “inactive”.
`CCN(CC)CCNC(=O)c1ccc2c(c1)N(Cc1cc(C)ccc1C)C(=O)c1ccccc1S2` was tested, and the IC50 was > 80 µM (inactive).
